From PubChem BioAssay (NCI)
“And” between values parts separate entries of the source, which are not always exact repeats. Equal values may be shown once.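 These data come from cells grown in 96-well plates and exposed to compound for 48 hours at five concentrations. GI50 marks 50% less growth. Definition used: TGI = concentration required for complete inhibition of growth.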

Tested on: HOP-62 NSCLC
Assay: NCI anticancer screen, dose series, 48 h

Question: With `O=C(c1ccccc1)c1cc(Cl)ccc1OCCCCN1CCN(CCCCOc2ccc(Cl)cc2C(=O)c2ccccc2)CC1` as the compound, how does the GI50 read?
Answer: 3.82 µM

Question: And the TGI?
Answer: 13.6 µM

Question: Which results are given for `CNCCNc1c2c(c(NCCNC)c3c(CN(C)C)c[nH]c13)C(=O)c1ccccc1C2=O`?
Answer: GI50: 2.9 µM; TGI: 10.1 µM

Question: What does the source list for `CC1OC2CC(=O)OC2C2=C1C(=O)c1c(O)cccc1C2=O` (centres undefined)?
Answer: GI50: 0.182 µM; TGI: 0.366 µM

Question: With `Oc1ccc(Cl)cc1Cc1cc(Cl)cc(Cl)c1O` as the compound, how does the GI50 read?
Answer: 3.68 µM

Question: And the TGI?
Answer: 21 µM

Question: How did the GI50 turn out when `C=C(C=O)C1CCC2(C(=O)O)CCC3(C)C(CCC4C5(C)CCC(O)C(C)(C)C5CCC43C)C12` (centres undefined) was run?
Answer: 4.93 µM

Question: What about the TGI of the same compound?
Answer: 19.7 µM

Question: What does the source list for `COc1ccc(N2C(=O)C(c3ccccc3)(c3ccccc3)C23C(=O)N(C)c2ccccc23)cc1` (centres undefined)?
Answer: GI50: > 100 µM; TGI: > 100 µM

Question: For `O=c1c2ccccc2[se]n1-c1cccnc1`, which TGI is on record?
Answer: 71 µM

Tested on: EKVX NSCLC
Assay: NCI anticancer screen, dose series, 48 h

Question: With `COc1ccc2c(c1)C(C)Cc1c(Cl)ncnc1N2C` (centres undefined) as the compound, how does the GI50 read?
Answer: 0.44 µM

Question: What about the TGI of the same compound?
Answer: 29.9 µM

Question: Which results are given for `COCCOc1cc(F)c2c(Nc3ccc(NC(=O)Cn4cc(C(C)C)nn4)cc3)ncnc2c1`?
Answer: GI50: > 100 µM; TGI: > 100 µM

Question: For `C#Cc1cccc(Nc2ncnc3cc(OC)c(OCCCCCCC(=O)NO)cc23)c1`, which GI50 is on record?
Answer: 0.154 µM

Question: What about the TGI of the same compound?
Answer: 6.34 µM

Question: Which TGI does the source give for `Cc1nnc(S(=O)(=O)c2ccc(N=Nc3c(N)nc(N)nc3N)cc2)s1` here?
Answer: > 100 µM

Question: `O=c1n(CC2CO2)c(=O)n(CC2CO2)c(=O)n1CC1CO1` (centres undefined) was tested. Which TGI did it give?
Answer: 175 µM

Question: For `Cc1ccc(C(SCC(N)C(=O)O)(c2ccccc2)c2ccc(C)cc2)cc1` (centres undefined), which GI50 is on record?
Answer: 0.357 µM

Question: And the TGI?
Answer: > 46.8 µM

Question: What does the source list for `COc1cc(Nc2cn[nH]c2-c2ccc(Cl)cc2)cc(OC)c1OC`?
Answer: GI50: 5.21 µM; TGI: 52.7 µM

Question: Which GI50 does the source give for `O=C(c1ccccc1)c1cc(Cl)ccc1OCCCCN1CCN(CCCCOc2ccc(Cl)cc2C(=O)c2ccccc2)CC1` here?
Answer: 10.8 µM

Question: What about the TGI of the same compound?
Answer: 24.7 µM

Question: Which GI50 does the source give for `CNCCNc1c2c(c(NCCNC)c3c(CN(C)C)c[nH]c13)C(=O)c1ccccc1C2=O` here?
Answer: 2.13 µM

Question: And the TGI?
Answer: 5 µM

Question: Which GI50 does the source give for `CC1OC2CC(=O)OC2C2=C1C(=O)c1c(O)cccc1C2=O` (centres undefined) here?
Answer: 0.407 µM

Question: What about the TGI of the same compound?
Answer: 1.59 µM

Question: How did the GI50 turn out when `Oc1ccc(Cl)cc1Cc1cc(Cl)cc(Cl)c1O` was run?
Answer: 3.75 µM

Question: What about the TGI of the same compound?
Answer: 62.5 µM

Question: Which results are given for `C=C(C=O)C1CCC2(C(=O)O)CCC3(C)C(CCC4C5(C)CCC(O)C(C)(C)C5CCC43C)C12` (centres undefined)?
Answer: GI50: 6.23 µM; TGI: > 61.7 µM

Question: How did the GI50 turn out when `COc1ccc(N2C(=O)C(c3ccccc3)(c3ccccc3)C23C(=O)N(C)c2ccccc23)cc1` (centres undefined) was run?
Answer: > 100 µM

Question: What about the TGI of the same compound?
Answer: > 100 µM

Question: Which TGI does the source give for `O=c1c2ccccc2[se]n1-c1cccnc1` here?
Answer: > 100 µM

Tested on: MALME-3M melanoma
Assay: NCI anticancer screen, dose series, 48 h

Question: `COc1ccc2c(c1)C(C)Cc1c(Cl)ncnc1N2C` (centres undefined) was tested. Which GI50 did it give?
Answer: 0.294 µM

Question: And the TGI?
Answer: 3.63 µM

Question: Which results are given for `COCCOc1cc(F)c2c(Nc3ccc(NC(=O)Cn4cc(C(C)C)nn4)cc3)ncnc2c1`?
Answer: GI50: 79.6 µM; TGI: > 100 µM

Question: For `C#Cc1cccc(Nc2ncnc3cc(OC)c(OCCCCCCC(=O)NO)cc23)c1`, which GI50 is on record?
Answer: 0.037 µM

Question: And the TGI?
Answer: 0.763 µM

Question: With `Cc1nnc(S(=O)(=O)c2ccc(N=Nc3c(N)nc(N)nc3N)cc2)s1` as the compound, how does the TGI read?
Answer: > 100 µM

Question: How did the GI50 turn out when `O=c1n(CC2CO2)c(=O)n(CC2CO2)c(=O)n1CC1CO1` (centres undefined) was run?
Answer: 17.1 µM and 43.2 µM

Question: What about the TGI of the same compound?
Answer: 44.3 µM and 70.2 µM and > 100 µM

Question: How did the GI50 turn out when `Cc1ccc(C(SCC(N)C(=O)O)(c2ccccc2)c2ccc(C)cc2)cc1` (centres undefined) was run?
Answer: 2.57 µM

Question: What about the TGI of the same compound?
Answer: 22.1 µM

Question: `COc1cc(Nc2cn[nH]c2-c2ccc(Cl)cc2)cc(OC)c1OC` was tested. Which GI50 did it give?
Answer: 4.51 µM

Question: What about the TGI of the same compound?
Answer: 45.8 µM

Question: `O=C(c1ccccc1)c1cc(Cl)ccc1OCCCCN1CCN(CCCCOc2ccc(Cl)cc2C(=O)c2ccccc2)CC1` was tested. Which GI50 did it give?
Answer: 1.61 µM

Question: What about the TGI of the same compound?
Answer: 3.77 µM

Question: Which GI50 does the source give for `CNCCNc1c2c(c(NCCNC)c3c(CN(C)C)c[nH]c13)C(=O)c1ccccc1C2=O` here?
Answer: 6.73 µM

Question: And the TGI?
Answer: 15.5 µM

Question: What does the source list for `CC1OC2CC(=O)OC2C2=C1C(=O)c1c(O)cccc1C2=O` (centres undefined)?
Answer: GI50: 0.0235 µM; TGI: 0.0695 µM

Question: What does the source list for `Oc1ccc(Cl)cc1Cc1cc(Cl)cc(Cl)c1O`?
Answer: GI50: 3.68 µM; TGI: 18.7 µM

Question: What does the source list for `C=C(C=O)C1CCC2(C(=O)O)CCC3(C)C(CCC4C5(C)CCC(O)C(C)(C)C5CCC43C)C12` (centres undefined)?
Answer: GI50: 2.33 µM; TGI: 7.99 µM

Question: For `COc1ccc(N2C(=O)C(c3ccccc3)(c3ccccc3)C23C(=O)N(C)c2ccccc23)cc1` (centres undefined), which GI50 is on record?
Answer: > 100 µM

Question: What about the TGI of the same compound?
Answer: > 100 µM

Question: How did the TGI turn out when `O=c1c2ccccc2[se]n1-c1cccnc1` was run?
Answer: 50.7 µM
